# Results published in patent publication US6737383B1, “Herbicidal oxadiazolidines” (priority 1999, dated 2004).
# How the values were obtained:
# bedstraw = test: Test B pre/postemergence bedstraw; format: in vivo, Galium aparine; conditions: scale of 0 to 10 where 0 is no effect and 10 is complete control
# How it was run: (§1)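 Test chemicals in a non-phytotoxic solvent mixture with surfactant were sprayed preemergence onto planted seeds and postemergence onto plants 2 to 18 cm tall (1- to 4-leaf stage). After twelve to sixteen days in a greenhouse, injury was visually rated against untreated controls from 0 (no effect) to 10 (complete control).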
# blackgrass = test: Test B pre/postemergence blackgrass; format: in vivo, Alopecurus myosuroides
# How it was run: as §1
# surinam grass = test: Test B pre/postemergence surinam grass; format: in vivo, Brachiaria decumbens
# How it was run: as §1
# cocklebur = test: Test B pre/postemergence cocklebur; format: in vivo, Xanthium strumarium
# How it was run: as §1
# crabgrass = test: Test B pre/postemergence crabgrass; format: in vivo, Digitaria sanguinalis
# How it was run: as §1
# giant foxtail = test: Test B pre/postemergence giant foxtail; format: in vivo, Setaria faberii
# How it was run: as §1
# morningglory = test: Test B pre/postemergence morningglory; format: in vivo, Ipomoea hederacea
# How it was run: as §1
# pigweed = test: Test B pre/postemergence pigweed; format: in vivo, Amaranthus retroflexus
# How it was run: as §1
# soybean = test: Test B pre/postemergence soybean; format: in vivo, Glycine max
# How it was run: as §1
# velvetleaf = test: Test B pre/postemergence velvetleaf; format: in vivo, Abutilon theophrasti
# How it was run: as §1
# wheat = test: Test B pre/postemergence wheat; format: in vivo, Triticum aestivum
# How it was run: as §1
# wild oat = test: Test B pre/postemergence wild oat; format: in vivo, Avena fatua
# How it was run: as §1
# purple nutsedge = test: Test B pre/postemergence purple nutsedge; format: in vivo, Cyperus rotundus
# How it was run: as §1
# rice = test: Test B flood test rice; format: in vivo, Oryza sativa
# How it was run: (§2)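 Plants were grown to the 2-leaf stage before treatment with test chemical, then held in a greenhouse for twelve to sixteen days. Injury was visually rated against untreated controls on a 0–10 scale, where 0 is no effect and 10 is complete control.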
# smallflower flatsedge = test: Test B flood test smallflower flatsedge; format: in vivo, Cyperus difformis
# How it was run: as §2
# bamyardgrass = test: Test B flood test barnyardgrass; format: in vivo, Echinochloa crus-galli
# How it was run: as §2
# [1] = Postemergence, Rate 250 g/ha, scale 0 to 10, 0 is no effect, 10 is complete control
# [2] = Postemergence, Rate 500 g/ha, scale of 0 to 10 where 0 is no effect and 10 is complete control
# [3] = Preemergence, Rate 62 g/ha, scale 0 to 10 (0 no effect, 10 complete control)
# [4] = Preemergence, Rate 125 g/ha, scale of 0 to 10 where 0 is no effect and 10 is complete control
# [5] = Preemergence, Rate 250 g/ha, scale of 0 to 10 where 0 is no effect and 10 is complete control
# [6] = Preemergence, Rate 500 g/ha, scale of 0 to 10 where 0 is no effect and 10 is complete control
# [7] = Rate 62 g/ha, Postemergence, scale of 0 to 10 where 0 is no effect and 10 is complete control
# [8] = Postemergence, Rate 125 g/ha, scale 0 to 10, 0 is no effect, 10 is complete control
# [9] = Rate 62 g/ha, flood test species, Pre-emergence, visual evaluation after twelve to sixteen days
# [10] = Rate 125 g/ha, under heading Pre-emergence, flood test species, visual evaluation after twelve to sixteen days
# [11] = Rate 250 g/ha, Pre-emergence, flood-test species, scale 0 to 10, 0 is no effect, 10 is complete control
# [12] = Rate 500 g/ha, Pre-emergence, flood test species, scale 0 to 10 (0 no effect, 10 complete control)
structure (smiles),measurement,setting,value
CC(C)N(C(=O)n1oc(=O)n(C(CF)CF)c1=O)c1ccc(F)cc1 [Compound 390],Bedstraw plant response rating,"bedstraw; Postemergence, Rate 500 g/ha",7
same,"Plant response rating, Bedstraw","bedstraw; Preemergence, Rate 125 g/ha",0
same,"Plant response rating, Blackgrass",blackgrass; [1],9
same,Blackgrass plant response rating,blackgrass; [2],9
same,"Plant response rating, Blackgrass",blackgrass; [3],6
same,"Plant response rating, Blackgrass",blackgrass; [4],9
same,Blackgrass plant response rating,blackgrass; [5],9
same,Blackgrass plant response rating,blackgrass; [6],10
same,Blackgrass plant response rating,blackgrass; [7],8
same,"Plant response rating, B. signalgrass",surinam grass; [8],5
same,"Plant response rating, B. signalgrass",surinam grass; [1],5
same,B. signalgrass plant response rating,surinam grass; [2],8
same,"Plant response rating, B. signalgrass",surinam grass; [3],1
same,"Plant response rating, B. signalgrass",surinam grass; [4],5
same,B. signalgrass plant response rating,surinam grass; [5],9
same,B. signalgrass plant response rating,surinam grass; [6],10
same,B. signalgrass plant response rating,surinam grass; [7],2
same,"Plant response rating, Cocklebur",cocklebur; [8],0
same,"Plant response rating, Cocklebur",cocklebur; [1],3
same,Cocklebur plant response rating,cocklebur; [2],7
same,"Plant response rating, Cocklebur",cocklebur; [3],0
same,"Plant response rating, Cocklebur",cocklebur; [4],0
same,Cocklebur plant response rating,cocklebur; [5],2
same,Cocklebur plant response rating,cocklebur; [7],0
same,"Plant response rating, Crabgrass",crabgrass; [8],7
same,"Plant response rating, Crabgrass",crabgrass; [1],7
same,Crabgrass plant response rating,crabgrass; [2],9
same,"Plant response rating, Crabgrass",crabgrass; [3],8
same,"Plant response rating, Crabgrass",crabgrass; [4],9
same,Crabgrass plant response rating,crabgrass; [5],10
same,Crabgrass plant response rating,crabgrass; [6],10
same,Crabgrass plant response rating,crabgrass; [7],2
same,"Plant response rating, Giant foxtail",giant foxtail; [8],9
same,"Plant response rating, Giant foxtail",giant foxtail; [1],9
same,Giant foxtail plant response rating,giant foxtail; [2],10
same,"Plant response rating, Giant foxtail",giant foxtail; [3],10
same,"Plant response rating, Giant foxtail",giant foxtail; [4],10
same,Giant foxtail plant response rating,giant foxtail; [5],10
same,Giant foxtail plant response rating,giant foxtail; [6],10
same,Giant foxtail plant response rating,giant foxtail; [7],9
same,"Plant response rating, Morningglory",morningglory; [1],7
same,Morningglory plant response rating,morningglory; [2],9
same,"Plant response rating, Morningglory",morningglory; [3],0
same,"Plant response rating, Morningglory",morningglory; [4],3
same,Morningglory plant response rating,morningglory; [5],6
same,Morningglory plant response rating,morningglory; [6],7
same,Morningglory plant response rating,morningglory; [7],2
same,"Plant response rating, Redroot pigweed",pigweed; [1],9
same,Redroot pigweed plant response rating,pigweed; [2],9
same,"Plant response rating, Redroot pigweed",pigweed; [3],8
same,"Plant response rating, Redroot pigweed",pigweed; [4],9
same,Redroot pigweed plant response rating,pigweed; [5],10
same,Redroot pigweed plant response rating,pigweed; [6],10
same,Redroot pigweed plant response rating,pigweed; [7],2
same,"Plant response rating, Soybean",soybean; [1],3
same,Soybean plant response rating,soybean; [2],5
same,"Plant response rating, Soybean",soybean; [3],0
same,"Plant response rating, Soybean",soybean; [4],0
same,Soybean plant response rating,soybean; [5],2
same,Soybean plant response rating,soybean; [6],3
same,Soybean plant response rating,soybean; [7],2
same,"Plant response rating, Velvetleaf",velvetleaf; [1],7
same,Velvetleaf plant response rating,velvetleaf; [2],8
same,"Plant response rating, Velvetleaf",velvetleaf; [3],2
same,"Plant response rating, Velvetleaf",velvetleaf; [4],4
same,Velvetleaf plant response rating,velvetleaf; [5],6
same,Velvetleaf plant response rating,velvetleaf; [6],7
same,Velvetleaf plant response rating,velvetleaf; [7],0
same,"Plant response rating, Wheat",wheat; [1],3
same,Wheat plant response rating,wheat; [2],7
same,"Plant response rating, Wheat",wheat; [3],0
same,"Plant response rating, Wheat",wheat; [4],4
same,Wheat plant response rating,wheat; [5],8
same,Wheat plant response rating,wheat; [6],9
same,Wheat plant response rating,wheat; [7],0
same,"Plant response rating, Wild oats",wild oat; [1],7
same,Wild oats plant response rating,wild oat; [2],9
same,"Plant response rating, Wild oats",wild oat; [3],3
same,"Plant response rating, Wild oats",wild oat; [4],6
same,Wild oats plant response rating,wild oat; [5],10
same,Wild oats plant response rating,wild oat; [6],10
same,Wild oats plant response rating,wild oat; [7],0
same,"Plant response rating, Nutsedge",purple nutsedge; [1],3
same,"Plant response rating, Nutsedge",purple nutsedge; [3],0
same,"Plant response rating, Nutsedge",purple nutsedge; [4],0
same,Nutsedge plant response rating,purple nutsedge; [5],0
same,Nutsedge plant response rating,purple nutsedge; [6],2
same,Nutsedge plant response rating,purple nutsedge; [7],0
same,"Plant response rating, Rice (0 to 10 scale, 0 is no effect, 10 is complete control)",rice; [9],1
same,"Rice plant response rating (0 to 10 scale, 0 is no effect, 10 is complete control)",rice; [10],1
same,Rice plant response rating,rice; [11],1
same,Rice plant response rating,rice; [12],4
same,"Plant response rating, S. Flatsedge (0 to 10 scale, 0 is no effect, 10 is complete control)",smallflower flatsedge; [9],0
same,"S. Flatsedge plant response rating (0 to 10 scale, 0 is no effect, 10 is complete control)",smallflower flatsedge; [10],0
same,S. Flatsedge plant response rating,smallflower flatsedge; [11],0
same,S. Flatsedge plant response rating,smallflower flatsedge; [12],7
same,"Plant response rating, Barnyardgrass (0 to 10 scale, 0 is no effect, 10 is complete control)",bamyardgrass; [9],2
same,"Barnyardgrass plant response rating (0 to 10 scale, 0 is no effect, 10 is complete control)",bamyardgrass; [10],5
same,Barnyardgrass plant response rating,bamyardgrass; [11],4
same,Barnyardgrass plant response rating,bamyardgrass; [12],9
